# In paper PMC10004417, “Screening of Potential α-Glucosidase Inhibitors from the Roots and Rhizomes of Panax Ginseng by Affinity Ultrafiltration Screening Coupled with UPLC-ESI-Orbitrap-MS Method” (Molecules, 2023):
# Like-named read-outs stand apart in the source and are kept apart here.
# Legend:
# Assay in all cases: pNPG enzyme inhibition assay, % inhibition at […]; also affinity ultrafiltration LC-MS (PAR […])
# Format in all cases: biochemical
# Details in all cases: read-out: Inhibitory (%)
# α-Glucosidase [1] = biological target: T1, α-Glucosidase (Saccharomyces cerevisiae, UniProt P53341)
# T1 construct: gene MAL12
# T1 sequence (P53341 whole entry): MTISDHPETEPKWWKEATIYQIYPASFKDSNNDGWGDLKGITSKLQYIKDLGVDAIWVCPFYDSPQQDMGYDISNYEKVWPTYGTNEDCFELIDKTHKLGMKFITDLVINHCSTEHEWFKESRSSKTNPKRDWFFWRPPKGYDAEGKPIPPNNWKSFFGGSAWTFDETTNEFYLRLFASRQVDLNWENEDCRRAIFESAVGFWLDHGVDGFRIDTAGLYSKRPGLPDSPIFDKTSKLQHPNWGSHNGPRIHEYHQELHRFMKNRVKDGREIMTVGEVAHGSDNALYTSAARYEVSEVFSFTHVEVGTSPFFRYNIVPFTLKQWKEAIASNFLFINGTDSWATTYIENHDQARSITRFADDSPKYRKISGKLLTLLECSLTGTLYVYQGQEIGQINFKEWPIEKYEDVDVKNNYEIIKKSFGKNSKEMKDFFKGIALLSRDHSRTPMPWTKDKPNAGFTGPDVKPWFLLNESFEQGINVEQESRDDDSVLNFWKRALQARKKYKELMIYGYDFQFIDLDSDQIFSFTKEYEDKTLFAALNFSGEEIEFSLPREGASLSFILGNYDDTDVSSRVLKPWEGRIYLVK
# α-Glucosidase [2] = biological target: T1, α-Glucosidase; remark: listed apart in the source
# α-Glucosidase [3] = biological target: T1, α-Glucosidase; remark: listed apart in the source
compound,measurement,setting,value
"C=C(CCC=C(C)C)[C@H]1CC[C@]2(C)C1[C@H](O)CC1[C@@]3(C)CC[C@H](O)C(C)(C)C3[C@@H](OC3O[C@H](CO)[C@@H](O)[C@H](O)[C@H]3OC3O[C@@H](C)[C@H](O)[C@@H](O)[C@H]3O)C[C@]12C (stereo partly drawn) [R3, ginsenoside Rg6]",inhibition at 40000 µM,α-Glucosidase [1],27.4%
"CC1(C)CC[C@]2(C(=O)O[C@@H]3O[C@H](CO)[C@@H](O)[C@H](O)[C@H]3O)CC[C@]3(C)C(=CC[C@@H]4[C@@]5(C)CC[C@H](O[C@@H]6O[C@H](C(=O)O)[C@@H](O)[C@H](O)[C@H]6O[C@@H]6O[C@H](CO)[C@@H](O)[C@H](O)[C@H]6O)C(C)(C)[C@@H]5CC[C@]43C)[C@@H]2C1 [R8, ginsenoside Ro]",inhibition at 40000 µM,α-Glucosidase [2],20.2%
"CC(C)=CCC[C@](C)(OC1O[C@H](COC2O[C@@H](CO)[C@H](O)[C@H]2OC2OC[C@@H](O)[C@H](O)[C@H]2O)[C@@H](O)[C@H](O)[C@H]1O)C1CC[C@]2(C)C1[C@H](O)CC1[C@@]3(C)CC[C@H](OC4O[C@H](CO)[C@@H](O)[C@H](O)[C@H]4OC4O[C@H](CO)[C@@H](O)[C@H](O)[C@H]4O)C(C)(C)C3CC[C@]12C (stereo partly drawn) [R11, ginsenoside Ra2]",inhibition at 40000 µM,α-Glucosidase [3],29.5%
